These results are taken from PubChem BioAssay (NCI).

Each structure is given as a SMILES string. Values joined by “and” are separate entries in the source; they are usually repeats but may differ in a detail not shown here. Equal entries are not always repeated.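 Growth conditions: 96-well plates. Treatment: test compound, 48 hours, 5 concentrations. Analysis: linear interpolation between bracketing concentrations; unreached endpoints set to highest concentration. Abbreviation: GI50, concentration required for 50% inhibition of growth. TGI: concentration producing complete growth inhibition.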

Common to all, as to test: inhibition of tumour cell growth, NCI panel, 48 h
Test [1] has as its system SW-620 colon.
The test system of test [2] is MCF7 breast.
Test [3] concerns 786-0 renal.
Test [4] concerns SF-295 CNS.
The test system of test [5] is HL-60(TB) leukemia.
The test system of test [6] is SNB-75 CNS.
Test [7] deals with SN12C renal.
Test [8] relates to HOP-92 NSCLC.
For test [9], the system named is NCI-H522 lung.
For test [10], the system named is SK-OV-3 ovarian.

Take `Cc1ccc(F)cc1NC(=O)c1cc(Cl)ccc1Nc1ccccc1`: the GI50 in [1] is greater than 100 µM; in [2] it was greater than 100 µM; in test [3] it was 52.1 µM; in test [4] it was 56 µM; in test [5] it was greater than 100 µM; in test [6], 22.7 µM. Moreover, the GI50 in test [7] is greater than 100 µM; in test [8] it was 32 µM; in test [9] it was greater than 100 µM; in [10], greater than 100 µM. For the same compound, the TGI in test [1], in [2], in test [3], in test [4], in [5] and in test [6] was greater than 100 µM in each case. Besides, the TGI in test [7], in test [8], in test [9] and in [10] was greater than 100 µM in each case.
In the case of `O=[N+]([O-])c1cccc(-c2cc(-c3cc(Br)ccc3O)[nH]n2)c1`, the GI50 in test [1] is 2.81 µM; in test [2], 1.42 µM; in test [3] it was 1.7 µM; in [5], 1.15 µM; in test [6], 2.68 µM; in [7], 3.19 µM. Also, the GI50 is 2.38 µM in test [8], 1.49 µM in test [9] and 2.37 µM in test [10]. Besides, the TGI in test [1] was found to be 12.3 µM; in test [2] it was 7.05 µM; in [3] it was 4.08 µM; in [5], 3.45 µM; in test [6], 14.5 µM; in [7], 12.4 µM. Besides, the TGI came to 8.08 µM in test [8], 3.66 µM in test [9] and 7.15 µM in test [10].
`COc1ccc(C(=O)CC(c2ccc(OC)c(OC)c2)c2c(O)c3ccccc3oc2=O)cc1OC` (stereo not drawn): the TGI in [1], in [2], in test [3], in test [4], in [5] and in [6] was greater than 100 µM in each case. The TGI in test [7], in test [8], in test [9] and in test [10] was greater than 100 µM throughout.
`COc1ccc(-n2c3c(c4c(CN(C)C)c(O)c(C)cc42)CCc2ccccc2C3=O)cc1`: the GI50 in test [1] was 32.5 µM; in [2], greater than 100 µM; in test [3], 29.7 µM; in test [4] it was 35.6 µM; in test [5] it was 12.3 µM; in test [7], 29.6 µM. The figures for the GI50 in [8], in test [9] and in test [10] were 41.9 µM, 13.4 µM and greater than 100 µM, respectively. Moreover, the TGI was greater than 100 µM in test [1]; greater than 100 µM in [2]; greater than 100 µM in [3]; greater than 100 µM in test [4]; 43.6 µM in test [5]; greater than 100 µM in [7]. Moreover, the TGI in [8] was greater than 100 µM; in [9] it was 50.7 µM; in test [10], greater than 100 µM.
In the case of `NC1=NC(c2ccc(F)cc2)C2=C(N1)c1ccc3ccccc3c1OCC2` (stereo not drawn), the GI50 in test [2] is 4.69 µM; in test [3] it was 79.7 µM; in [4], 3.47 µM; in test [5], greater than 100 µM; in [6], 16.5 µM; in test [7] it was 22.2 µM. For the same compound, the GI50 in [8] was 36.3 µM; in test [9] it was greater than 100 µM; in [10], 26.8 µM. In addition, the TGI in [2] was greater than 100 µM; in test [3] it was greater than 100 µM; in [4], 48.4 µM; in test [5], greater than 100 µM; in [6], 70.5 µM; in test [7], greater than 100 µM. Also, the TGI in test [8], in [9] and in test [10] was greater than 100 µM throughout.
For the compound `CN1C(=O)C(c2c[nH]c3ccccc23)=C(c2c(-c3c[nH]c4ccccc34)[nH]c3ccccc23)C1=O`, the GI50 in test [2] was 2.27 µM; in test [3], 3.44 µM; in test [4], 1.93 µM; in [5] it was 2.41 µM; in test [6], 1.74 µM; in test [7], 2.64 µM. In addition, the GI50 was 12.3 µM in [9] and 3.14 µM in test [10]. Also, the TGI is 6.26 µM in test [2]; 14.1 µM in [3]; 4.27 µM in [4]; 8.21 µM in test [5]; 18 µM in [6]; greater than 100 µM in test [9]. The compound also gave a TGI in [10] of 13 µM.
For the compound `N#C[C@H]1Nc2ccccc2[C@@H](O)C1O` (stereo partly drawn), the TGI in [1], in test [2], in [3], in [4], in [5] and in test [6] was greater than 100 µM throughout. The TGI in test [7], in test [8] and in [10] was greater than 100 µM each time.
Consider `CC1(C)N[P+]2(Nc3ccccc3O2)OC1=O` (stereo not drawn), for which the TGI in test [1], in test [2], in test [3], in test [4], in test [5] and in test [6] was greater than 100 µM throughout. Further, the TGI in [7] and in test [10] was greater than 100 µM in each case.
In the case of `O=C1OCC2=C1C(c1cccc(C(F)(F)F)c1)c1cc3c(cc1N2CCO)CCC3` (stereo not drawn), the GI50 in [1] is 0.189 µM; in [2] it was 0.17 µM; in test [3] it was 0.289 µM; in test [4] it was 0.138 µM; in [5] it was 0.133 µM; in [7], 0.309 µM. In addition, the GI50 in test [8] was 1.74 µM; in test [9], 0.137 µM; in [10], 0.179 µM. Further, the TGI is 9.16 µM in test [1]; 7.65 µM in test [2]; 8.13 µM in test [3]; 6.21 µM in [4]; 0.427 µM in test [5]; 7.76 µM in [7]. The TGI turned out to be 10.3 µM in test [8], 1.35 µM in test [9] and 8.64 µM in [10].
For `Cc1c(O)c(=O)ccn1CCO`, the TGI in test [1], in test [3], in test [4], in [5], in test [6] and in [7] was greater than 100 µM in each case. For the same compound, the TGI in test [8], in test [9] and in test [10] was greater than 100 µM each time.
Turning to `CC(C)=CC1CC(C)C2(CCC3(C)CC4C(C(=O)CC4(C)O)/C(C=O)=C\CC32)O1` (stereo not drawn), the TGI in [2] amounted to 0.684 µM; in test [3], 0.0438 µM; in [4] it was 0.515 µM; in test [5], 0.0576 µM; in [6] it was 0.237 µM; in [7] it was 0.184 µM. Also, the TGI stood at 0.2 µM in test [8], 0.097 µM in [9] and 0.297 µM in [10].
As for `COC(=O)C1=Cc2c(cc(OC)c(OC)c2OC)[C@H](c2ccc(OC)c(OC)c2OC)C1C(=O)OC` (stereo partly drawn), the TGI in test [1], in test [3], in [4], in test [5], in [6] and in [7] was greater than 100 µM each time. The TGI in test [8], in test [9] and in test [10] was greater than 100 µM in each case.
With `O=C(O)CCCNS(=O)(=O)c1ccc2ccccc2c1`, the TGI in test [1], in [3], in test [4], in [5], in test [6] and in test [7] was greater than 100 µM each time. The TGI in [8], in [9] and in [10] was greater than 100 µM each time.
With `Oc1ccc(CN(Cc2ccc(C(F)(F)F)cc2)Cc2ccc(O)c3ncccc23)c2cccnc12`, the GI50 in test [1] was 0.0251 µM; in [2], less than 0.01 µM; in test [3] it was 0.0394 µM; in [4], 0.0182 µM; in test [5], 0.0239 µM; in test [6], 0.0172 µM. Besides, the GI50 is 0.0201 µM in test [7], 0.0218 µM in test [9] and 0.0655 µM in test [10]. Besides, the TGI in [1] was greater than 100 µM; in test [2] it was greater than 100 µM; in [3], 5.21 µM; in test [4], greater than 100 µM; in test [6] it was greater than 100 µM; in [7], greater than 100 µM. Also, the values for the TGI in test [9] and in test [10] were 0.588 µM and greater than 48.3 µM, respectively.
For `O=[N+]([O-])c1ccc(N=Nc2c(O)[nH]c3ccccc23)cc1`, the TGI in test [1] was greater than 100 µM; in test [2], greater than 100 µM; in [3], 61.7 µM; in test [4] it was 48.7 µM; in [5], greater than 77.8 µM; in [6], 42.6 µM. The TGI in test [7] was greater than 100 µM; in test [9], 34.6 µM; in test [10] it was 65.3 µM.
As to `CCCCCCCCCCCCCCCCn1cc[n+](Cc2ccccc2)c1C`, the GI50 was 1.12 µM and 0.289 µM in test [2]; 0.541 µM and 0.21 µM in [3]; 0.866 µM and 0.263 µM in test [4]; 0.0496 µM in [5]; 0.262 µM in test [6]; 1.07 µM and 0.156 µM in test [7]. The GI50 in test [9] was 0.451 µM; in test [10], 1.71 µM and 0.5 µM. The TGI in test [2] is 2.39 µM and 0.968 µM; in test [3], 1.87 µM and 0.621 µM; in test [4] it was 2.28 µM and 1.22 µM; in test [5], 2.06 µM; in test [6], 0.899 µM; in test [7] it was 2.34 µM and 1.17 µM. Further, the TGI in test [9] was 1.88 µM; in [10], 4.67 µM and 1.81 µM.
Regarding `CC(=O)OC12CC(C)C3(O)C4C=C(C)C(=O)[C@@]4(O)CC(CO)=C[C@H]3C1C2(C)C` (stereo partly drawn), the GI50 was greater than 1000 µM in [2]; greater than 1000 µM in [3]; 0.432 µM and 0.751 µM in test [5]; greater than 1000 µM in test [6]; 45.4 µM in test [8]; greater than 1000 µM in test [9]. The TGI in test [2], in [3], in test [5], in test [6], in [8] and in test [9] was greater than 1000 µM in each case. The TGI in test [10] was greater than 1000 µM.
Regarding `OCc1ccc(Oc2c3ccccc3nc3occc23)cc1`, the GI50 in test [2] was 16.6 µM; in test [3] it was 33.9 µM; in [4], 15.5 µM; in test [5], 27.2 µM; in test [6] it was 31.7 µM; in test [7], 24.5 µM. The values for the GI50 in test [9] and in [10] were greater than 100 µM and 36.8 µM, respectively. Moreover, the TGI in test [2] is 39.5 µM; in [3], greater than 100 µM; in test [4], 35.9 µM; in test [5], 79.6 µM; in [6], 89.8 µM; in test [7], 62.3 µM. Besides, the TGI in test [9] and in test [10] was greater than 100 µM throughout.
For `COc1ccc(-c2csc3c2-n2cccc2C3=O)cc1O`, the GI50 in test [1] is less than 0.0122 µM; in test [2], 0.0326 µM; in test [3], 0.0977 µM; in [4], 0.5 µM; in test [5], 0.0163 µM; in test [6], 0.0281 µM. Further, the figures for the GI50 in test [7], in test [9] and in test [10] were 0.0365 µM, less than 0.01 µM and 0.0452 µM, respectively. The TGI in test [1] was greater than 100 µM; in test [2], greater than 100 µM; in [3], 25.2 µM; in test [4] it was greater than 100 µM; in [5] it was 0.0955 µM; in test [6], greater than 100 µM. Moreover, the TGI in test [7] is greater than 100 µM; in test [9] it was 0.0434 µM; in [10] it was 18.1 µM.
`CN(CCN(C)C(=O)CCOS(C)(=O)=O)C(=O)CCOS(C)(=O)=O`: the TGI in [1], in test [3], in [4], in test [5], in test [6] and in test [7] was greater than 100 µM each time. Further, the TGI in test [8], in test [9] and in [10] was greater than 100 µM in each case.
